In patent publication US11311541B2 (priority 2014, dated 2022):
Entries after “also recorded” stand apart in the source; their conditions may differ. Like-named read-outs stand apart in the source and are kept apart here. One block for each molecule: values may come before it.

Columns and labels:
ROCK2 [1] = target: T1, ROCK2 (Homo sapiens (Human), UniProt O75116); conditions: read-out: ROCK2 IC50
Source text: (§2) Dose response curves for Rho-kinase inhibition were derived from a Invitrogen Z′-LYTE™ Kinase Assay Kit (Invitrogen catalog number PV3793). Purified active ROCK1 and ROCK2 were obtained from Invitrogen (catalog numbers ROCK1, PV3691 and ROCK2, PV3759). The kit components include a coumarin and fluorescein labeled peptide based on myosin light chain 2 ([sequence]), a proprietary protease containing development reagent and a proprietary Stop buffer used to terminate the development reaction. The inhibitory activities of compounds are measured according to the manufactures protocol. […] This mixture is overlayed into a white 96-well half area plate and the reaction is initiated with the addition of 5 uM ATP for ROCK1 or 12 uM ATP for ROCK2. The assay proceeds at room temperature for 1 hour followed by the addition of development reagent, and further incubation for 1 hour at room temperature. STOP reagent is then added and the reaction and immediately the coumarin and fluorescein emission signals are read on a Tecan Infinite M1000 fluorescence plate reader (excitation: 400 nm; emission 445 and 520 nm, respectively). By comparing the emission ratios of the test samples against control samples, percent phosphorylation values are calculated and the concentration of inhibitor that produces ½ inhibition of kinase activity (IC50) is determined using Prism.

ROCK1 = ROCK1 (Homo sapiens (Human), UniProt Q13464); assay type: biochemical
Source text: as §2

cytokine secretion = assay: cytokine secretion, FIG. 10; assay type: cell-based
ROCK2 [2] = target: T1, ROCK2; assay: biochemical
Source text: as §2

STAT3 phosphorylation = STAT3 phosphorylation in T cells; assay type: cell-based, human
Method: STAT3 plays a critical role in Th17 differentiation via regulation of RORγt expression and direct binding to the IL-17 and IL-21 promoters. […] In a different experiment, cells were cultured under Th17-skewing conditions for 5 days and then treated with the ROCK2 selective inhibitor for 3 hours.

[3] = system: sclerodermatous cGVHD mouse model; assay: sclerodermatous cGVHD mouse model (B10.D2 into BALB/c); assay type: in vivo
Source text: In this model, BALB/c (H-2^d) mice received 775 cGy of total body radiation on day 0 and were transplanted with bone marrow and T-cells from B10.D2 (H-2^d) mice. […] The GVHD score in this model combined changes in weight lost, posture, activity, fur texture, and skin integrity (FIG. 26). Sclerodermatous cGVHD mice were further analyzed as depicted in FIGS. 27-35.

[4] = system: TGF-β-induced STAT3, MLC and SMAD2/3 phosphorylation; assay: TGF-β-induced phosphorylation in Tregs; assay type: cell-based
Source text: (FIG. 16). TGF-3 is involved in development and function of both Th17 and Treg subsets of T cells. However, when Tregs are regulated in Smad2/3-dependent signaling mechanism, TGF-β regulates Th17 cells in Smad2/3 independent manner that is considered as non-canonical TGF-β-induced signaling.

[5] = system: murine model of chronic GVHD; assay: murine model of chronic GVHD, lung pathology
Method: On day −1, recipients received total-body irradiation (TBI) by X-ray (8.5 Gy). Donor bone marrow (BM) was T-cell depleted with anti-Thy 1.2 mAb followed by rabbit complement. On day 0, recipients received 10^7 BM cells with or without allogeneic splenocytes (10^6 cells). Weights of individual mice were recorded twice weekly. […] The analysis of pulmonary function was performed on day 28 (before the treatment) and on day 56. Anesthetized mice were weighed, and lung function was assessed by wholebody plethysmography with the Flexivent system (SCIREQ) and analyzed with Flexivent Version 5.1 software. Survival data were analyzed by life-table methods, and actuarial survival rates are shown. Group comparisons were made by log-rank test.
Lungs were inflated by infusion of 1 mL of optimal cutting temperature compound:PBS (3:1) intratracheally prior to harvest. Six-micrometer cryosections were fixed for 5 minutes in acetone and stained with mMasson's trichrome staining kit (Sigma-Aldrich) for detection of collagen deposition. Collagen deposition was quantified on trichrome-stained sections as a ratio of area of blue staining to area of total staining by use of the Adobe mPhotoshop CS3 analysis tool (Adobe Systems). For measuring Ig deposition, acetone-fixed 6-m lung cryosections were blocked with horse serum and streptavidin-biotin blocking kit (Vector) and stained with fluorescein isothiocyanate (FITC)-labeled anti-mouse-Ig (BD Pharmingen). Antibody deposition was quantified by area of Ig staining per 100-μm section.
Mice were treated as described above, except that twelve animals per group were tested. […] (n=3/group). Spleens were also collected for analysis on day 56. […] Pulmonary function tests and analysis of body weight were performed as described above.

[6] = system: murine model of chronic GVHD; assay: germinal centers and Tfh cells in spleen, murine model of chronic GVHD; assay type: in vivo, mouse; conditions: 150 mg/kg
Method: Fixed 6-μm spleen cryosections of mice were stained with rhodamine-conjugated peanut agglutinin (PNA; Vector Laboratories), and the size of the PNA-positive sections was measured and defined as germinal centers. For flow cytometric analysis of Tfh cells and GC B cells, single-cell suspensions from spleens were obtained and labeled with anti-CD4, anti-CXCR5, and anti-PD1 antibodies (eBioscience). Cells were analyzed on a BD LSRFortessa cell analyzer.

[7] = system: PBMCs of treated patients; assay: ex vivo stimulation of cytokine production in PBMCs isolated from treated patients; set-up: species or system human; conditions: 120 mg/day, days 1 and 8-14; anti-CD3/CD28 72 hours
Method: Peripheral blood mononuclear cells (PBMCs) were collected at the start and end of the trial and stimulated by plating on immobilized anti-CD3/CD28 antibodies for 72 hours, and levels of IL-17, IL-21, and IFN-γ were measured. […] No effect on IFN-γ was observed.

CD4+ human T cells [8] = assay: T cell proliferation in response to TCR stimulation in vitro; assay type: cell-based
Source text: (§1) Activation of resting T cells, resulting in cytokine secretion and proliferation, involves two distinct signals from antigen-presenting cells (APCs), mimicked by co-stimulation of the T cell receptor (TCR)/CD3 complex and the CD28 receptor.

CD4+CD25+ human Tregs = assay: Treg inhibition of IL-17 secretion in CD4+CD25- T cells; assay type: cell-based; conditions: Tregs treated 3 hours; Treg:Teff 1:4 and 1:9
human CD4+ T cells = assay: Foxp3+ cells among CD4+ T cells; assay type: cell-based; conditions: 5 days of Th17 skewing activation
Source text: Foxp3 is a lineage-specific transcription factor for Tregs and is crucial to the development and inhibitory function of these cells. STAT5 signaling positively regulates the induction and stabilization of Foxp3 expression in T cells in vitro and in vivo. […] (FIG. 14).

CD4+ human T cells [9] = assay: cytokine secretion of anti-CD3/CD28 stimulated CD4+ T cells in vitro; assay type: cell-based; conditions: anti-CD3/CD28 stimulation
Source text: as §1

[10] = plasma KD025 concentration in murine chronic GVHD; assay type: in vivo, mouse; conditions: day 56, 1-hr pre-dose and 1-hr post-dose
Method: Mice were treated as described above, except that twelve animals per group were tested. […] (n=3/group).

[11] = system: CD4+ T cells from RA patients; assay: cytokine secretion ex vivo in CD4+ T cells from RA patients; assay type: cell-based, human
Source text: Among RA patients, inhibition of IFN-γ production was correlated with disease activity score (DAS). (FIG. 12B).

[12] = system: STAT3/STAT5 phosphorylation, RORγt, IRF4, Bcl6 in spleens; assay: Western blot of spleen cells, murine model of cGVHD; assay type: in vivo, mouse; conditions: treatment days 28-56
Method: Mice were treated as described above, except that twelve animals per group were tested. […] (n=3/group). Spleens were also collected for analysis on day 56. […] Single cell suspensions were prepared from the isolated spleens. Cells were lysed in RIPA buffer and analyzed for protein content. Sample buffer was then added, and, after boiling, the samples, containing equal amounts of proteins, were separated by SDS-PAGE gel electrophoresis and transferred to a nitrocellulose membrane. Membranes were blocked and probed with specific antibodies overnight. Actin was used as a loading control. Anti-pSTAT3 pSTAT5 and Bcl6 antibodies were purchased from Cell Signaling Technologies (Beverly, Mass.). Anti-IRF4 (sc-48338) and anti-RORγt (14-6988) were obtained from Santa Cruz Biotechnology Inc. and eBioscience respectively. Immunoreactive protein bands were visualized using an HRP-conjugated secondary antibodies and an enhanced ECL system.

[13] = Table 3 (Example 203, method not given)
[14] = day 98, 42 days after last administration
[15] = 2 RA patients, intracellular staining
[16] = RA patients, anti-CD3/CD28, ex vivo

T1 sequence (O75116 1-552): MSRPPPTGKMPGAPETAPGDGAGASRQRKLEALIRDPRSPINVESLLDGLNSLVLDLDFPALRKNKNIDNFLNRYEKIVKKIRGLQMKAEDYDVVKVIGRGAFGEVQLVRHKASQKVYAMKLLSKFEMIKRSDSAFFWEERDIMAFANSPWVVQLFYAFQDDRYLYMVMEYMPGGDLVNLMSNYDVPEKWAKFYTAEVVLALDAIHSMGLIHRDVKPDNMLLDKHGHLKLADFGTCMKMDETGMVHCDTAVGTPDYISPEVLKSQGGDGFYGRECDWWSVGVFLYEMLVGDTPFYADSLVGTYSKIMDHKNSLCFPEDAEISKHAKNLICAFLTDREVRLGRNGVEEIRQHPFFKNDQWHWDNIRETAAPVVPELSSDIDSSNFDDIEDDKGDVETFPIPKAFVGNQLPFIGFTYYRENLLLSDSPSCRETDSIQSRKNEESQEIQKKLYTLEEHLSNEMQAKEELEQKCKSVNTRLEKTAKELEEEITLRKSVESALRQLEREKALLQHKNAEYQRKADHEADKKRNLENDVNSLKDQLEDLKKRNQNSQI
Chain of ROCK1 (Q13464 1-535): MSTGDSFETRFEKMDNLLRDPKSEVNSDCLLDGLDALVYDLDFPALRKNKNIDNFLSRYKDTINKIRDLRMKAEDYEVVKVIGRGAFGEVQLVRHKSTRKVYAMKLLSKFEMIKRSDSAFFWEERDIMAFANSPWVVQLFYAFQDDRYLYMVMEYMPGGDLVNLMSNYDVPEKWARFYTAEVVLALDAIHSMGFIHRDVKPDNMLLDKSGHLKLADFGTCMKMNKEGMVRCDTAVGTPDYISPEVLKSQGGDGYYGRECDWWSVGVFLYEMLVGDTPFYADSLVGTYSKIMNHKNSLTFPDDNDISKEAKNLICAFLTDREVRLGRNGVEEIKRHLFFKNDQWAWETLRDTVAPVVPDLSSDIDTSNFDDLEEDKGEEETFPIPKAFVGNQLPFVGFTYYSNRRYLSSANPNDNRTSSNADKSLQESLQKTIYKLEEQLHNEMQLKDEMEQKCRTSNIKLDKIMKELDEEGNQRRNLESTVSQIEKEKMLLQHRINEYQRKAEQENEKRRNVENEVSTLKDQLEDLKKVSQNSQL

IC50 (ROCK2 [1]; Table 2, 12 uM ATP): > 5.5 µM | IC50 (ROCK1; Table 2, 5 uM ATP): > 2 µM
Compound: CC(N)c1cccc(-c2nccc(Nc3ccc4[nH]ncc4c3)n2)c1 (stereo not drawn) [Example 147, N-(2-(3-(1-aminoethyl)phenyl)pyrimidin-4-yl)-1H-indazol-5-amine]

IC50 (ROCK2 [1]; Table 2, 12 uM ATP): > 10 µM | IC50 (ROCK1; Table 2, 5 uM ATP): > 10 µM
Compound: CC(C)NC(=O)COc1cccc(-c2nc(Nc3ccc4[nH]ncc4c3)cc(C(F)(F)F)n2)c1 [Example 169]

Compound: COc1ccc2c(c1)CN(c1nccc(Nc3ccc4[nH]ncc4c3)n1)C2 [Example 181, N-(2-(5-methoxyisoindolin-2-yl)pyrimidin-4-yl)-1H-indazol-5-amine]
secretion of IL-21 (cytokine secretion; FIG. 10 Panel A): inhibits | inhibition of IL-17 secretion (cytokine secretion; FIG. 10 Panel B): dose-dependent

IC50 (ROCK1; [13]): > 10 µM
Compound: c1ccc2c(c1)CN(c1nccc(Nc3ccc4[nH]ncc4c3)n1)C2 [Example 182, N-(2-(isoindolin-2-yl)pyrimidin-4-yl)-1H-indazol-5-amine]

IC50 (ROCK1; [13]): > 10 µM
Compound: COc1ccc2c(c1)CN(c1ccnc(Nc3ccc4[nH]ncc4c3)n1)C2 [Example 188, N-(4-(5-methoxyisoindolin-2-yl)pyrimidin-2-yl)-1H-indazol-5-amine]

IC50 (ROCK1; [13]): > 10 µM
Compound: Clc1ccc2c(c1)CN(c1nccc(Nc3ccc4[nH]ncc4c3)n1)C2 [Example 190, N-(2-(5-chloroisoindolin-2-yl)pyrimidin-4-yl)-1H-indazol-5-amine]

IC50 (ROCK1; [13]): > 10 µM
Compound: COc1ccc2c(c1)CCN(c1nccc(Nc3ccc4[nH]ncc4c3)n1)C2 [Example 191, N-(2-(6-methoxy-3,4-dihydroisoquinolin-2(1H)-yl)pyrimidin-4-yl)-1H-indazol-5-amine]

IC50 (ROCK1; [13]): > 10 µM
Compound: c1cc(Nc2ccc3[nH]ncc3c2)nc(N2CCc3sccc3C2)n1 [Example 192, N-(2-(6,7-dihydrothieno[3,2-c]pyridin-5(4H)-yl)pyrimidin-4-yl)-1H-indazol-5-amine]

IC50 (ROCK1; [13]): > 10 µM
Compound: COc1ccc2c(c1)CN(c1cc(Nc3ccc4[nH]ncc4c3)ncn1)C2 [Example 193, N-(6-(5-methoxyisoindolin-2-yl)pyrimidin-4-yl)-1H-indazol-5-amine]

IC50 (ROCK1; [13]): > 10 µM | IC50 (ROCK2 [2]): 0.13 to 0.18 µM
Compound: COc1ccc2c(c1)CN(c1cc(Nc3ccc4[nH]ncc4c3)nc(C)n1)C2 [Example 194, N-(6-(5-methoxyisoindolin-2-yl)-2-methylpyrimidin-4-yl)-1H-indazol-5-amine]

IC50 (ROCK1; [13]): > 10 µM
Compound: c1cc2c(cn1)CN(c1nccc(Nc3ccc4[nH]ncc4c3)n1)C2 [Example 195, N-(2-(1H-pyrrolo[3,4-c]pyridin-2(3H)-yl)pyrimidin-4-yl)-1H-indazol-5-amine]

IC50 (ROCK2 [1]; [13]): > 0.01 µM
Compound: COc1ccc2c(c1)CN(c1nc(C)c(C)c(Nc3ccc4[nH]ncc4c3)n1)C2 [Example 196, N-(2-(5-methoxyisoindolin-2-yl)-5,6-dimethylpyrimidin-4-yl)-1H-indazol-5-amine]

IC50 (ROCK1; [13]): > 10 µM
Compound: COc1ccc2c(c1)CN(c1nccc(Nc3ccc(-c4ccncc4)cc3)n1)C2 [Example 200, 2-(5-methoxyisoindolin-2-yl)-N-(4-(pyridin-4-yl)phenyl)pyrimidin-4-amine]

Compound: CC(C)NC(=O)COc1cccc(-c2nc(Nc3ccc4[nH]ncc4c3)c3ccccc3n2)c1 [KD025]
phosphorylation of IFR4 and RORγT (STAT3 phosphorylation; separate experiment, FIG. 11C): reduced phosphorylation | phosphorylation of STAT3 (STAT3 phosphorylation; two designs: pre-treatment then anti-CD3/CD28, Th17-skewing 5 days then 3 hours treatment): significantly down-regulates | cervical LN T Cell IFNg ([3]; FIG. 32): decreased | development of chronic sclerodermatous cGVHD ([3]; i.p. once daily days 19-47): blocked the development | GVHD score ([3]; i.p. once daily days 19-47, weight lost, posture, activity, fur texture, skin integrity): significantly decreased | TGF-β-induced MLC phosphorylation [4]: down-regulates | TGF-β-induced STAT3 phosphorylation [4]: down-regulates | phosphorylation of SMAD2/3 [4]: remains intact | pulmonary function (resistance, elastance, compliance) ([5]; 100 mg/kg i.p. daily from day 28, tested day 56): significantly improved and normalized pulmonary function | antibody deposition in lungs ([5]; 150 mg/kg): essentially indistinguishable from samples from uninduced mice | collagen deposition in lungs ([5]; 150 mg/kg): essentially indistinguishable from samples from uninduced mice | effect on cGVHD lung pathology, dose dependence ([5]; 30, 100, 150 mg/kg): dose dependent | body weight ([5]; Example 216, FIG. 23): no effect | survival rates ([5]; FIG. 18): no effect | body weight ([5]; FIG. 18, 19): no effect | lung resistance [5, 14]: dose-dependent decrease | respiratory function [5, 14]: long-lasting improvement; also recorded: Partial improvement | numbers of CD4+PD1HiCXCR5 Tfh cells in spleen [6]: reversed | numbers of germinal centers in spleen [6]: reversed | induction of IL-17 secretion in PBMCs [7]: significantly inhibited in PBMCs isolated from four of five patients | induction of IL-21 secretion in PBMCs [7]: significantly inhibited in PBMCs from all five patients | proliferation in response to TCR stimulation (CD4+ human T cells [8]): down-regulated their ability to proliferate | ability of Tregs to suppress IL-17 secretion in CD4+CD25- effector T cells (CD4+CD25+ human Tregs): significantly increased | percentage of Foxp3+ cells (human CD4+ T cells): significantly increased | IFN-γ secretion (CD4+ human T cells [9]): less robust and significant only at high dose (10 μM) | IL-2 secretion (CD4+ human T cells [9]): observed only at the highest concentration (10 μM) | IL-17 secretion (CD4+ human T cells [9]): significantly inhibited | IL-21 secretion (CD4+ human T cells [9]): significantly inhibited | plasma KD025 concentrations [10]: measurable and generally dose dependent | frequency of IFN-γ-producing cells [11, 15]: significantly reduced the frequencies | frequency of IL-17-producing cells [11, 15]: significantly reduced the frequencies | IFN-γ secretion [11, 16]: significantly down-regulated | IL-17 secretion [11, 16]: significantly down-regulated | IL-21 secretion [11, 16]: significantly down-regulated | STAT3 phosphorylation in spleens [12]: significant reduction | STAT5 phosphorylation in spleens [12]: concurrent increase | protein levels of RORγt, IRF4 and Bcl6 in spleenocytes [12]: dose-dependent decrease
